PubChem BioAssay AID248 (DTP/NCI, 2004)
Several values for one entry are separate records, joined by “and”; a condition that tells them apart may be missing. Equal values may be shown once. Inconclusive results and toxic doses are left out. Rule as the data show it: active = T/C of 150% or more; inactive = T/C below 125%.

Test system: L1210 leukemia ip in BDF1 mice, survival T/C
Test: NCI In Vivo Anticancer Drug Screen. Data for tumor model L1210 Leukemia (intraperitoneal) in B6D2F1 (BDF1) mice
Details: endpoint: mean survival time, higher = longer survival
Method in brief: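 Ratio derived from survival: compound-dosed mice over vehicle-dosed mice, all bearing a transplantable tumor.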

[1] = dose: 100.0 mg/kg/injection, schedule: Q01DX001 (ip), vehicle: saline with Tween-80
[2] = dose: 200.0 mg/kg/injection, schedule: Q01DX001 (ip), vehicle: saline with Tween-80
[3] = dose: 400.0 mg/kg/injection, schedule: Q01DX001 (ip), vehicle: saline with Tween-80
[4] = dose: 100.0 mg/kg/injection, schedule: Q01DX009 (ip), vehicle: saline with Tween-80
[5] = dose: 200.0 mg/kg/injection, schedule: Q01DX009 (ip), vehicle: saline with Tween-80
[6] = dose: 400.0 mg/kg/injection, schedule: Q01DX009 (ip), vehicle: saline with Tween-80
[7] = dose: 100.0 mg/kg/injection, schedule: Q01DX001 (ip), vehicle: carboxymethylcellulose (CMC)
[8] = dose: 100.0 mg/kg/injection, schedule: Q04DX002 (ip), vehicle: Klucel (hydroxypropylcellulose) (HPC)
[9] = dose: 200.0 mg/kg/injection, schedule: Q04DX002 (ip), vehicle: Klucel (hydroxypropylcellulose) (HPC)
[10] = dose: 100.0 mg/kg/injection, schedule: Q01DX009 (ip), vehicle: Klucel (hydroxypropylcellulose) (HPC)
[11] = dose: 100.0 mg/kg/injection, schedule: Q04DX003 (ip), vehicle: Klucel (hydroxypropylcellulose) (HPC)
[12] = dose: 200.0 mg/kg/injection, schedule: Q01DX009 (ip), vehicle: Klucel (hydroxypropylcellulose) (HPC)
[13] = dose: 200.0 mg/kg/injection, schedule: Q04DX003 (ip), vehicle: Klucel (hydroxypropylcellulose) (HPC)
[14] = dose: 400.0 mg/kg/injection, schedule: Q01DX009 (ip), vehicle: Klucel (hydroxypropylcellulose) (HPC)
[15] = dose: 400.0 mg/kg/injection, schedule: Q04DX003 (ip), vehicle: Klucel (hydroxypropylcellulose) (HPC)
[16] = dose: 200.0 mg/kg/injection, schedule: Q01DX001 (ip), vehicle: carboxymethylcellulose (CMC)
[17] = dose: 400.0 mg/kg/injection, schedule: Q01DX001 (ip), vehicle: carboxymethylcellulose (CMC)
[18] = dose: 100.0 mg/kg/injection, schedule: Q04DX003 (ip), vehicle: saline with Tween-80
[19] = dose: 200.0 mg/kg/injection, schedule: Q04DX003 (ip), vehicle: saline with Tween-80
[20] = dose: 400.0 mg/kg/injection, schedule: Q04DX003 (ip), vehicle: saline with Tween-80
[21] = dose: 400.0 mg/kg/injection, schedule: Q04DX002 (ip), vehicle: Klucel (hydroxypropylcellulose) (HPC)
[22] = dose: 25.0 mg/kg/injection, schedule: Q01DX009 (ip), vehicle: saline with Tween-80
[23] = dose: 50.0 mg/kg/injection, schedule: Q01DX009 (ip), vehicle: saline with Tween-80
[24] = dose: 100.0 mg/kg/injection, schedule: Q04DX002 (ip), vehicle: saline with Tween-80
[25] = dose: 200.0 mg/kg/injection, schedule: Q04DX002 (ip), vehicle: saline with Tween-80
[26] = dose: 400.0 mg/kg/injection, schedule: Q04DX002 (ip), vehicle: saline with Tween-80

Measured: T/C

c1ccc(N2CCN(Cc3ccc4ccccc4c3)CC2)cc1
inactive: [1] 96 % of control | [2] 100 % of control | [3] 91 % of control

CCC(CCC(C)C1CCC2C3CC=C4CC(OC(=O)CCC(=O)O)CCC4(C)C3CCC12C)C(C)C (stereo not given)
inactive: [4] 101 % of control | [5] 96 % of control | [6] 92 % of control

C=CCN(CC=C)c1nc(Cl)nc(Cl)n1
inactive: dose: 50.0 mg/kg/injection, schedule: Q01DX001 (ip), vehicle: carboxymethylcellulose (CMC) 106 % of control | [7] 98 % of control | [8] 105 % of control | [9] 101 % of control

Nc1ncnc2nc(-c3cccc(OCCCOc4ccccc4)c3)[nH]c12
inactive: dose: 75.0 mg/kg/injection, schedule: Q01DX001 (ip), vehicle: gum acacia 95 % of control | dose: 150.0 mg/kg/injection, schedule: Q01DX001 (ip), vehicle: gum acacia 93 % of control | dose: 300.0 mg/kg/injection, schedule: Q01DX001 (ip), vehicle: gum acacia 91 % of control

CCN=C(c1ccc(NC(=O)c2ccc(C(=O)Nc3ccc(C(=NCC)N(CC)CC)cc3)cc2)cc1)N(CC)CC
inactive: dose: 0.94 mg/kg/injection, schedule: Q01DX Z (ip), vehicle: carboxymethylcellulose (CMC) 94 % of control | dose: 1.87 mg/kg/injection, schedule: Q01DX Z (ip), vehicle: carboxymethylcellulose (CMC) 95 % of control

O=C(/C=C/c1ccccc1)Nc1cc(Cl)ccc1Cl
inactive: [10] 110 % of control | [11] 97 % of control | [12] 114 % of control | [13] 89 % of control | [14] 96 % of control | [15] 94 % of control

Cc1ccc(S(=O)(=O)N/N=C(/c2ccccc2)c2ccsc2C)cc1
inactive: [1] 98 % of control | [2] 88 % of control | [3] 92 % of control

COc1cc(NCc2ccccc2)ccc1NC(C)=O
inactive: dose: 15.0 mg/kg/injection, schedule: Q01DX001 (ip), vehicle: carboxymethylcellulose (CMC) 98 % of control | dose: 30.0 mg/kg/injection, schedule: Q01DX001 (ip), vehicle: carboxymethylcellulose (CMC) 110 % of control | dose: 75.0 mg/kg/injection, schedule: Q01DX001 (ip), vehicle: carboxymethylcellulose (CMC) 98 % of control

CCCC(NC(=O)CN)C(=O)O (stereo not given)
inactive: dose: 50.0 mg/kg/injection, schedule: Q04DX002 (ip), vehicle: saline 96 % of control | dose: 100.0 mg/kg/injection, schedule: Q04DX002 (ip), vehicle: saline 101 % of control | dose: 200.0 mg/kg/injection, schedule: Q04DX002 (ip), vehicle: saline 96 % of control

COC1CC(OC2C(C)C(=O)OC(C)C(C)C(OC(C)=O)C(C)C(=O)C3(CO3)CC(C)C(OC3OC(C)CC(N(C)C)C3OC(C)=O)C2C)OC(C)C1OC(C)=O (stereo not given)
inactive: [7] 108 % of control | [16] 113 % of control | [17] 108 % of control

S=P1(c2ccccc2)Nc2ccc(Cl)cc2N1 (stereo not given)
inactive: dose: 75.0 mg/kg/injection, schedule: Q04DX002 (ip), vehicle: gum acacia 104 % of control | dose: 150.0 mg/kg/injection, schedule: Q04DX002 (ip), vehicle: gum acacia 104 % of control | dose: 300.0 mg/kg/injection, schedule: Q04DX002 (ip), vehicle: gum acacia 101 % of control

NC(=O)NC(=O)C1C2C=CC(C2)C1C(=O)NC(N)=O (stereo not given)
inactive: [18] 100 % of control | [19] 100 % of control | [20] 91 % of control

COc1ccc([N+](=O)[O-])cc1NC(=O)N1CCCCC1C (stereo not given)
inactive: dose: 100.0 mg/kg/injection, schedule: Q01DX001 (ip), vehicle: Klucel (hydroxypropylcellulose) (HPC) 101 % of control | [10] 98 % of control and 102 % of control | [8] 97 % of control and 103 % of control | [11] 106 % of control | dose: 200.0 mg/kg/injection, schedule: Q01DX001 (ip), vehicle: Klucel (hydroxypropylcellulose) (HPC) 102 % of control | [12] 98 % of control and 106 % of control | [9] 94 % of control and 105 % of control | [13] 99 % of control | dose: 400.0 mg/kg/injection, schedule: Q01DX001 (ip), vehicle: Klucel (hydroxypropylcellulose) (HPC) 96 % of control | [14] 95 % of control and 96 % of control | [21] 94 % of control and 110 % of control | [15] 91 % of control

CC(C)[As](C)(=O)O
inactive: dose: 6.25 mg/kg/injection, schedule: Q04DX003 (ip), vehicle: Klucel (hydroxypropylcellulose) (HPC) 101 % of control | dose: 12.5 mg/kg/injection, schedule: Q04DX003 (ip), vehicle: Klucel (hydroxypropylcellulose) (HPC) 97 % of control | dose: 25.0 mg/kg/injection, schedule: Q04DX003 (ip), vehicle: Klucel (hydroxypropylcellulose) (HPC) 102 % of control and 103 % of control

COc1ccc(CNCCNCc2ccc(OC)c(OC)c2)cc1OC
inactive: [4] 97 % of control | [18] 100 % of control | [5] 102 % of control | [19] 93 % of control | [6] 106 % of control | [20] 105 % of control

CCCCCCCCP(C)(=O)CCCCCCCC
inactive: [8] 105 % of control | [9] 102 % of control

COc1c(C)c(C)c(OC(C)=O)c(C)c1COC(C)=O
inactive: [22] 90 % of control | [23] 95 % of control | [1] 98 % of control | [4] 95 % of control and 98 % of control | [2] 93 % of control | [3] 109 % of control

O=C(N/N=C\c1cc(Cl)ccc1[N+](=O)[O-])c1ccco1
inactive: dose: 200.0 mg/kg/injection, schedule: Q01DX001 (ip), vehicle: other 93 % of control

COc1ncnc2c(C3OC(CO)C(O)C3O)[nH]nc12 (stereo not given)
inactive: dose: 100.0 mg/kg/injection, schedule: Q01DX005 (ip), vehicle: saline 103 % of control | dose: 200.0 mg/kg/injection, schedule: Q01DX005 (ip), vehicle: saline 97 % of control

Clc1c2ccccc2cc2ccccc12
inactive: [8] 92 % of control | [9] 100 % of control | [21] 107 % of control

CC1(C)N=C(N)N=C(N)N1c1cccc(C(=O)Nc2ccc(S(=O)(=O)F)cc2)c1
inactive: dose: 0.8 mg/kg/injection, schedule: Q01DX009 (ip), vehicle: saline 98 % of control | dose: 4.0 mg/kg/injection, schedule: Q01DX009 (ip), vehicle: saline 101 % of control | dose: 20.0 mg/kg/injection, schedule: Q01DX009 (ip), vehicle: saline 98 % of control

O=C1OC(/C=C/c2ccccc2)=NC/1=C\c1cc(Br)ccc1O
inactive: [24] 104 % of control | [25] 95 % of control and 97 % of control | [26] 104 % of control and 114 % of control

CC(O)C(=O)SCc1ccccc1 (stereo not given)
inactive: [24] 95 % of control | [25] 98 % of control | [26] 92 % of control

c1ccc(C2SCCSCCS2)cc1
inactive: [22] 92 % of control | [23] 86 % of control | [4] 86 % of control | [11] 102 % of control | [13] 100 % of control | [15] 92 % of control

O=C(COc1cccc(Cl)c1)NCc1ccccc1NC(=O)c1cccc(S(=O)(=O)F)c1
inactive: [7] 90 % of control | [16] 95 % of control | [17] 95 % of control

C/C(C/C=N/N=C(N)N)=N\N=C(N)N
inactive: dose: 15.0 mg/kg/injection, schedule: Q01DX Z (ip), vehicle: water 98 % of control | dose: 30.0 mg/kg/injection, schedule: Q01DX Z (ip), vehicle: water 96 % of control | dose: 60.0 mg/kg/injection, schedule: Q01DX Z (ip), vehicle: water 102 % of control | dose: 120.0 mg/kg/injection, schedule: Q01DX Z (ip), vehicle: water 102 % of control | dose: 120.0 mg/kg/injection, schedule: Q01DX Z (oral), vehicle: water 103 % of control | dose: 240.0 mg/kg/injection, schedule: Q01DX Z (oral), vehicle: water 100 % of control | dose: 480.0 mg/kg/injection, schedule: Q01DX Z (oral), vehicle: water 108 % of control | dose: 960.0 mg/kg/injection, schedule: Q01DX Z (oral), vehicle: water 102 % of control
